Article PMC8997913, “Lichen Secondary Metabolites Inhibit the Wnt/β-Catenin Pathway in Glioblastoma Cells and Improve the Anticancer Effects of Temozolomide” (Cells, 2022)
Entries after “also recorded” stand apart in the source; their conditions may differ.

What was measured:
[1] = Parallel artificial membrane permeability assay for the blood-brain barrier (PAMPA-BBB); assay type: in vitro ADME; conditions: pH 7.4, 4 h, 37 °C; for Papp at 4 h, 24.75 µg/mL: mean ± SEM, n = 3, Pe > 1.5 high, < 1.5 low permeation predicted, read-out: Pe × 10^−6
Description: The parallel artificial membrane permeability assay (PAMPA) for the blood-brain barrier (BBB) (Pion Inc., Billerica, MA, USA) was used to analyze whether the lichen secondary metabolites tested in this study were able to cross the BBB. The stock solutions (5 mg/mL) of tested compounds were prepared using DMSO. Next, the donor solution (24.75 μg/mL) using Prisma buffer (pH = 7.4; Prisma HT, Pion Inc., Billerica, MA, USA) were made. Firstly, 180 μL of the donor solution were added to the donor wells. Then the filter membranes were coated with 5 μL BBB-1 lipid solution (Pion Inc., Billerica, MA, USA) and the acceptor wells were filled with 200 μL BSB (Brain Sink Buffer, Pion Inc., Billerica, MA, USA). The plates were sandwiched together and incubated for 4 h at 37 °C (Thermo Scientific MaxQ 4450, Waltham, MA, USA). The results were determined by spectroscopic analysis (Multiskan GO microplate reader, Waltham, MA, USA), with the appropriate wavelength for a given compound (240 nm for […] salazinic acid, 250 nm for atranorin and squamatic acid, 263 nm for physodic acid, and 270 nm for lecanoric acid). […] Pe is the effective permeability coefficient (cm/s), VD-donor volume, VA-acceptor volume, Ceq-equilibrium concentration, Ceq=CD×VD+CA×VA/VD+VA , S-membrane area, and t-incubation time (in seconds). […] Samples were analyzed in triplicate, and the average was reported.

U-138 MG cells [2] = assay: Apoptosis, caspase-3/7 and 7-AAD flow cytometry, U-138 MG; assay type: cell-based, human; conditions: 48 h
Description: (§1) Based on the MTT test, the lichen secondary metabolite concentrations allowing the survival of more than 70% of cells were chosen for the subsequent experiments. The compounds were added as follows: A-172 cells—atranorin 25 µM, caperatic acid 50 µM, physodic acid 25 µM, squamatic acid 25 µM, salazinic acid 50 µM, and lecanoric acid 100 µM; T98G cells—atranorin 50 µM, caperatic acid 100 µM, physodic acid 25 µM, squamatic acid 50 µM, salazinic acid 100 µM, and lecanoric acid 100 µM; U-138 MG cells—atranorin 25 µM, caperatic acid 50 µM, physodic acid 25 µM, squamatic acid 50 µM, salazinic acid 50 µM, and lecanoric acid 100 µM. As far as the TMZ treatment is concerned, it was added in the concentrations depending on the MGMT expression and methylation status, i.e., TMZ 30 µM was added to the A-172 cell line, and TMZ 100 µM was added to both the T98G and U-138 MG cell lines. In the case of the 2D culture, the cells were treated with the compounds 24 h after seeding, whereas, in regard to 3D culture, 5 days were needed to form spheroids. All subsequent analyses were performed 48 h after treatment.
(§2) The fluorescent-based analysis of apoptosis using Muse® Caspase-3/7 Kit was performed in order to analyze the percentage of live, early, and late apoptotic; total apoptotic; and dead cells in A-172, T98G, and U-138 MG GBM cells treated with lichen secondary metabolites. The principle of the method relies on the measurement of the activity of executioner caspases, i.e., caspase-3 and caspase-7, as well as analyzing the integrity of the cell membrane with the use of a dead cell marker 7-AAD. Cell seeding and treatment followed the same protocol as for cell cycle or ROS generation analysis, while the subsequent procedures were performed according to the manufacturer’s recommendations.

U-138 MG cells [3] = assay: MTT test, U-138 MG; assay type: cell-based, human; conditions: 48 h; for IC50: Homo sapiens, U138-MG, three independent experiments, read-out: IC50 [uM] ± SEM U-138 MG
Description: Three human GBM cell lines were used in this study, i.e., A-172 (ATCC-CRL-1620), T98G (92090213), and U-138 MG (ATCC-HTB-16). The A-172 and U-138 MG cell lines were purchased from the American Type Culture Collection (ATCC), whereas the T98G cell line was obtained from the European Collection of Authenticated Cell Cultures (ECACC). It has been confirmed by us that O^6-methylguanine-DNA methyltransferase (MGMT), the key factor determining the response to alkylating agents, such as TMZ, is expressed in T98G and U-138 MG cells, whereas in A-172 the expression of MGMT is silenced by promoter methylation. Therefore, the cell lines differ in terms of TMZ sensitivity; A-172 is regarded as TMZ sensitive, whereas T98G and U-138 MG are TMZ resistant.
The cells were grown as monolayers (2D cell culture) in the recommended media: A-172 were grown in the ATCC-formulated DMEM (Merck, Darmstadt, Germany), whereas T98G and U-138 MG cell lines were grown in the ATCC-formulated EMEM (Merck, Darmstadt, Germany). These media were supplemented with FBS (Biowest, Nuaillé, France) to a final concentration of 10%, as well as antibiotics (penicillin and streptomycin) (Merck, Darmstadt, Germany) to the final concentrations of 1%. For the experiments, the amount of FBS was reduced to 5%. The medium for the T98G cell line was supplemented with 2 mM glutamine, 1% nonessential amino acids, and 1% sodium pyruvate (all purchased from Merck, Darmstadt, Germany).
In order to analyze the cytotoxicity of the analyzed lichen secondary metabolites, as well as to establish the appropriate concentrations for further analysis (allowing the survival of >70% of cells), we performed the MTT test. The procedure of the test was described previously. Briefly, the cells (10,000 cells per well) were seeded on the 96-well plates and left for 24 h. Afterwards, the analyzed compounds in the concentration range of 1 µM up to 100 µM were added to the cells and left for 48 h incubation. DMSO treated cells served as control. After the above-mentioned time, the cells were washed twice with warm PBS and incubated for 3 h in the presence of a fresh medium containing MTT salt (0.5 mg/mL). Then the formazan crystals were dissolved in acidic isopropanol. The absorbance was measured at 570 and 690 nm on a Tecan Infinite M200 microplate reader (Grödig, Austria). The experiments were repeated at least three times.

T98G cells = assay: Apoptosis, caspase-3/7 and 7-AAD flow cytometry, T98G; assay type: cell-based, human; conditions: 48 h, topotecan 100 nM
Description: as §1, §2

Row | Compound | Papp at 4 h, 24.75 µg/mL [1] | effect on apoptosis (U-138 MG cells [2]) | IC50 (U-138 MG cells [3]) | number of apoptotic cells vs control (T98G cells) | number of late apoptotic cells vs control (U-138 MG cells [2]; 100 µM) | percentage of early apoptotic cells vs control (U-138 MG cells [2]; 100 µM) | Pe × 10^−6 (cm/s), class [1] | number of viable cells (U-138 MG cells [3]; U-138 MG, 50 µM)
1 | COC(=O)c1c(C)cc(OC(=O)c2c(C)cc(O)c(C=O)c2O)c(C)c1O [Atranorin] | 2.2 ± 0.1 ×10⁻⁶ cm/s | anti-apoptotic effect | 47.8 ± 2.16 µM |  |  |  |  | 
2 | CCCCCCCCCCCCCCC(C(=O)O)C(O)(CC(=O)OC)C(=O)O (stereo not drawn) [Caperatic acid] | 5.2 ± 0.1 ×10⁻⁶ cm/s | anti-apoptotic effect | > 100 µM |  |  |  |  | 
3 | Cc1cc(OC(=O)c2c(C)cc(O)cc2O)cc(O)c1C(=O)O [Lecanoric acid] | 1.7 ± 0.2 ×10⁻⁶ cm/s |  | > 100 µM | significant increase; also recorded: induced apoptosis | increased | decreased |  | 
4 | Cc1cc(O)c(C=O)c2c1C(=O)Oc1c(CO)c(O)c3c(c1O2)C(O)OC3=O (stereo not drawn) [Salazinic acid] |  |  | > 100 µM | significant increase; also recorded: induced apoptosis |  |  | np (np—classified as non-permeable (i.e., Pe < 0.5 × 10^−6 cm/s)) | significantly reduced the number of viable cells
5 | COc1cc(C)c(C(=O)Oc2cc(C)c(C(=O)O)c(O)c2C)c(O)c1C(=O)O [Squamatic acid] | 0.5 ± 0.1 ×10⁻⁶ cm/s |  | > 100 µM | significant increase; also recorded: induced apoptosis |  |  |  | 
